Measured values from patent publication US20250257034A1, “INDOLE DERIVATIVES AS SEROTONERGIC AGENTS USEFUL FOR THE TREATMENT OF DISORDERS RELATED THERETO” (priority 2023, published 2025).

Legend:
Format in all cases: in vitro ADME
[1] = Human liver microsomes stability; conditions: human liver microsomes; for half-life at 2 μM / microsomal CLint at 2 μM: 2 μM compound, 0.5 mg/mL; for microsomal CLint at 2 μM: read-out: CLint (μL/min/mg protein); for CLint scaled at 2 μM: read-out: Scaled-up CLint
Procedure: (§1) The objective of this study was to estimate in vitro metabolic stability of exemplary compounds of Formula (I) or a pharmaceutically acceptable salt, solvate, and/or prodrug thereof in pooled human, male rat, and male mouse liver microsomes. The concentrations of compounds in reaction systems were evaluated by LC-MS/MS for estimating the stability in pooled human, male rat, and male mouse liver microsomes. The in vitro intrinsic clearances of test compounds were determined as well.
(§2) A master solution in the “Incubation Plate” containing phosphate buffer, ultra-pure H2O, MgCl2 solution and liver microsomes was made according to Table 33. The mixture was pre-warmed at 37° C. water bath for 5 minutes.
(§3) 40 μL of 10 mM nicotinamide adenine dinucleotide phosphate (NADPH) solution was added to each well. The final concentration of NADPH was 1 mM. The negative control samples were prepared by replacing NADPH with 40 μL of ultra-pure H2O. Samples were prepared in duplicate. Negative controls were prepared in singlet.
(§4) The reaction was started with the addition of 4 μL of 200 μM exemplary test compounds of the disclosure or control compounds to each master solution to get the final concentration of 2 μM. This study was performed in duplicate.
(§5) Aliquots of 50 μL were taken from the reaction solution at 0, 15, 30, 45, and 60 minutes. The reaction solutions were stopped by the addition of 4 volumes of cold methanol with IS (100 nM alprazolam, 200 nM imipramine, 200 nM labet alol and 2 μM ketoprofen). Samples were centrifuged at 3,220 g for 40 minutes. Aliquot of 90 μL of the supernatant was mixed with 90 μL of ultra-pure H2O and then was used for LC-MS/MS analysis.
(§6) LC/MS analysis was performed for all samples from this study using a Shimadzu liquid chromatograph separation system equipped with degasser DGU-20A5R; solvent delivery unit LC-30AD; system controller SIL-30AC; column oven CTO-30A; CTC Analytics HTC PAL System. Mass spectrometric analysis was performed using a Triple Quad™ 5500 instrument.
(§7) All calculations were carried out using Microsoft Excel. Peak area ratios of test compound to internal standard (listed in the below table) were determined from extracted ion chromatograms.
(§8) All calculations were carried out using Microsoft Excel. Peak areas were determined from extracted ion chromatograms. The slope value, k, was determined by linear regression of the natural logarithm of the remaining percentage of the parent drug vs. incubation time curve.
(§9) The in vitro half-life (in vitro t1/2) was determined from the slope value:
(§10) Conversion of the in vitro t1/2(min) into the in vitro intrinsic clearance (in vitro CLint, in μL/min/mg proteins) was done using the following equation (mean of duplicate determinations): […]
(§11) A master solution in the “Incubation Plate” containing phosphate buffer, ultra-pure H2O, MgCl2 solution and liver microsomes was made according to Table 63. The mixture was pre-warmed at 37° C. water bath for 5 minutes.
(§12) 40 μL of 10 mM NADPH solution was added to each well. The final concentration of NADPH was 1 mM. The negative control samples were prepared by replacing NADPH with 40 μL of ultra-pure H2O. Samples were prepared in duplicate. Negative controls were prepared in singlet.
(§13) Conversion of the in vitro t1/2(min) into the in vitro intrinsic clearance (in vitro C Lt, in μL/min/mg proteins) was done using the following equation (mean of duplicate determinations): […]

[2] = Rat liver microsomes stability; conditions: rat liver microsomes; for half-life at 2 μM / CLint scaled at 2 μM / microsomal CLint at 2 μM: male, pooled liver microsomes; for half-life at 2 μM / microsomal CLint at 2 μM: 2 μM compound, 0.5 mg/mL; for CLint scaled at 2 μM: read-out: Scaled-up CLint; for microsomal CLint at 2 μM: rat, read-out: CLint (μL/min/mg protein)
Procedure: as §1, §2, §3, §4, §5, §6, §7, §8, §9, §10, §11, §12, §13

[3] = Mouse liver microsomes stability; conditions: mouse liver microsomes; for microsomal CLint at 2 μM / half-life at 2 μM / CLint scaled at 2 μM: male, pooled liver microsomes; for microsomal CLint at 2 μM: mouse, read-out: CLint (μL/min/mg protein); for microsomal CLint at 2 μM / half-life at 2 μM: 2 μM compound, 0.5 mg/mL; for CLint scaled at 2 μM: read-out: Scaled-up CLint
Procedure: as §1, §2, §3, §4, §5, §6, §7, §8, §9, §10, §11, §12, §13

Row | Compound | Predicted hepatic CL [1] | half-life at 2 μM [1] | microsomal CLint at 2 μM [1] | Remaining Percentage (%) ([1]; With Cofactors, 0 min) | Remaining Percentage (%) ([1]; With Cofactors, 30 min) | Remaining Percentage (%) ([1]; With Cofactors, 60 min) | Remaining Percentage (%) ([1]; Without Cofactors, 0 min) | Remaining Percentage (%) ([1]; Without Cofactors, 30 min) | Remaining Percentage (%) ([1]; Without Cofactors, 60 min) | CLint scaled at 2 μM [1] | half-life at 2 μM [2] | CLint scaled at 2 μM [2] | microsomal CLint at 2 μM [2] | Predicted hepatic CL [2] | Remaining Percentage (%) ([2]; With Cofactors, 0 min) | Remaining Percentage (%) ([2]; With Cofactors, 30 min) | Remaining Percentage (%) ([2]; With Cofactors, 60 min) | Remaining Percentage (%) ([2]; Without Cofactors, 0 min) | Remaining Percentage (%) ([2]; Without Cofactors, 30 min) | Remaining Percentage (%) ([2]; Without Cofactors, 60 min) | other results
1 | CN(CCOC(F)F)CCc1c[nH]c2ccccc12 [Compound I-130, N-(2-(1H-Indol-3-yl)ethyl)-2-(difluoromethoxy)-N-methylethan-1-amine] | 18.58 mL/min/kg | 9.6 min | 144 µL/min/mg | 100.00% | 11.46% | 0.75% | 100.00% | 99.47% | 94.15% | 181 mL/min/kg | < 4.51 min | > 550 mL/min/kg | > 307 µL/min/mg | >50.17 mL/min/kg | 100.00% | 0.00% | 0.00% | 100.00% | 105.21% | 103.65% | microsomal CLint at 2 μM [3]: 173 µL/min/mg; half-life at 2 μM [3]: 8.03 min; CLint scaled at 2 μM [3]: 755 mL/min/kg; Predicted hepatic CL [3]: 80.41 mL/min/kg; Remaining Percentage (%) ([3]; With Cofactors, 0 min): 100.00%; Remaining Percentage (%) ([3]; With Cofactors, 30 min): 7.52%; Remaining Percentage (%) ([3]; With Cofactors, 60 min): 0.87%; Remaining Percentage (%) ([3]; Without Cofactors, 0 min): 100.00%; Remaining Percentage (%) ([3]; Without Cofactors, 30 min): 95.65%; Remaining Percentage (%) ([3]; Without Cofactors, 60 min): 104.89%
2 | COc1ccc2[nH]cc(CCN3CC[C@@H](OC(F)F)C3)c2c1 [(R) I-67, (R)-3-(2-(3-(Difluoromethoxy)pyrrolidin-1-yl)ethyl)-5-methoxy-1H-indole] | 15.34 mL/min/kg | 29.3 min | 47.3 µL/min/mg | 100.00% | 47.22% | 24.23% | 100.00% | 79.21% | 71.91% | 59.3 mL/min/kg | 10.5 min | 236 mL/min/kg | 132 µL/min/mg | 44.73 mL/min/kg | 100.00% | 15.35% | 1.93% | 100.00% | 91.21% | 80.30% | microsomal CLint at 2 μM [3]: 57.4 µL/min/mg; half-life at 2 μM [3]: 24.1 min; CLint scaled at 2 μM [3]: 251 mL/min/kg; Predicted hepatic CL [3]: 66.25 mL/min/kg; Remaining Percentage (%) ([3]; With Cofactors, 0 min): 100.00%; Remaining Percentage (%) ([3]; With Cofactors, 30 min): 43.11%; Remaining Percentage (%) ([3]; With Cofactors, 60 min): 17.88%; Remaining Percentage (%) ([3]; Without Cofactors, 0 min): 100.00%; Remaining Percentage (%) ([3]; Without Cofactors, 30 min): 103.14%; Remaining Percentage (%) ([3]; Without Cofactors, 60 min): 109.43%
3 | COc1ccc2[nH]cc(CCN3CC[C@@H](OC)C3)c2c1 [(R) I-66, (R)-5-methoxy-3-(2-(3-methoxypyrrolidin-1-yl)ethyl)-1H-indole] | 4.37 mL/min/kg | 314 min | 4.42 µL/min/mg | 100.00% | 98.13% | 87.59% | 100.00% | 100.00% | 98.15% | 5.54 mL/min/kg | 17.8 min | 139 mL/min/kg | 77.7 µL/min/mg | 39.53 mL/min/kg | 100.00% | 22.22% | 9.71% | 100.00% | 102.61% | 100.00% | microsomal CLint at 2 μM [3]: 14.1 µL/min/mg; half-life at 2 μM [3]: 98.5 min; CLint scaled at 2 μM [3]: 61.5 mL/min/kg; Predicted hepatic CL [3]: 36.55 mL/min/kg; Remaining Percentage (%) ([3]; With Cofactors, 0 min): 100.00%; Remaining Percentage (%) ([3]; With Cofactors, 30 min): 72.95%; Remaining Percentage (%) ([3]; With Cofactors, 60 min): 65.58%; Remaining Percentage (%) ([3]; Without Cofactors, 0 min): 100.00%; Remaining Percentage (%) ([3]; Without Cofactors, 30 min): 104.20%; Remaining Percentage (%) ([3]; Without Cofactors, 60 min): 100.00%
